Experimental data: the NIST ThermoML archive (doi:10.1016/j.jct.2018.08.035)
Numbers after ± are expanded uncertainties.

Experiment: xn = mol fraction of the nth substance listed
Settings: 100 kPa, Liquid, Vibrating tube method

CCC(O)CC [3-pentanol] + C[N+](=O)[O-]
Settings | mass density [kg/m3]
291.36 K, x1 = 0.338 | 976.695 ± 2.1
291.36 K, x1 = 0.363 | 976.137 ± 2.1
291.36 K, x1 = 0.546 | 910.024 ± 2.5
291.36 K, x1 = 0.587 | 897.278 ± 1.9
291.36 K, x1 = 0.615 | 890.441 ± 1.9
291.45 K, x1 = 0.246 | 1006.19 ± 2.2
291.45 K, x1 = 0.275 | 994.165 ± 2.2
291.45 K, x1 = 0.338 | 972.479 ± 2.2
291.45 K, x1 = 0.382 | 968.647 ± 2.1
291.45 K, x1 = 0.407 | 965.925 ± 2.1
291.45 K, x1 = 0.414 | 965.499 ± 2.1
291.45 K, x1 = 0.486 | 938.691 ± 2.2
291.45 K, x1 = 0.488 | 935.781 ± 2.2
291.45 K, x1 = 0.546 | 907.652 ± 1.9
291.45 K, x1 = 0.573 | 900.812 ± 1.9
291.45 K, x1 = 0.587 | 897.17 ± 1.9
291.45 K, x1 = 0.615 | 890.332 ± 1.9
291.46 K, x1 = 0.266 | 997.671 ± 2.2
291.46 K, x1 = 0.3 | 984.765 ± 2.1
291.46 K, x1 = 0.325 | 975.497 ± 2.1
291.46 K, x1 = 0.363 | 971.707 ± 2.2
291.55 K, x1 = 0.246 | 1006.07 ± 2.2
291.55 K, x1 = 0.275 | 994.042 ± 2.2
291.55 K, x1 = 0.382 | 965.717 ± 2.1
291.55 K, x1 = 0.407 | 961.145 ± 2.1
291.55 K, x1 = 0.414 | 961.374 ± 2.1
291.55 K, x1 = 0.486 | 933.844 ± 2.3
291.55 K, x1 = 0.488 | 932.33 ± 2.2
291.55 K, x1 = 0.573 | 900.7 ± 1.9
291.56 K, x1 = 0.266 | 997.549 ± 2.2
291.56 K, x1 = 0.3 | 984.639 ± 2.1
291.56 K, x1 = 0.325 | 975.358 ± 2.1
291.56 K, x1 = 0.338 | 970.561 ± 2.1
291.56 K, x1 = 0.363 | 967.75 ± 2.1
291.56 K, x1 = 0.546 | 907.531 ± 1.9
291.56 K, x1 = 0.587 | 897.059 ± 1.9
291.56 K, x1 = 0.615 | 890.227 ± 1.9
291.65 K, x1 = 0.246 | 1005.95 ± 2.2
291.65 K, x1 = 0.266 | 997.425 ± 2.2
291.65 K, x1 = 0.275 | 993.918 ± 2.2
291.65 K, x1 = 0.325 | 975.23 ± 2.1
291.65 K, x1 = 0.338 | 970.427 ± 2.1
291.65 K, x1 = 0.363 | 961.876 ± 2.1
291.65 K, x1 = 0.382 | 955.241 ± 2.1
291.65 K, x1 = 0.407 | 957.953 ± 2.1
291.65 K, x1 = 0.414 | 956.971 ± 2.2
291.65 K, x1 = 0.486 | 923.683 ± 2
291.65 K, x1 = 0.488 | 922.941 ± 2
291.65 K, x1 = 0.546 | 907.417 ± 1.9
291.65 K, x1 = 0.573 | 900.591 ± 1.9
291.65 K, x1 = 0.615 | 890.121 ± 1.9
291.66 K, x1 = 0.3 | 984.514 ± 2.1
291.66 K, x1 = 0.587 | 896.95 ± 1.9
291.75 K, x1 = 0.246 | 1005.83 ± 2.2
291.75 K, x1 = 0.266 | 997.302 ± 2.2
291.75 K, x1 = 0.275 | 993.795 ± 2.2
291.75 K, x1 = 0.3 | 984.391 ± 2.1
291.75 K, x1 = 0.325 | 975.108 ± 2.1
291.75 K, x1 = 0.338 | 970.303 ± 2.1
291.75 K, x1 = 0.363 | 961.743 ± 2.1
291.75 K, x1 = 0.382 | 955.25 ± 2.1
291.75 K, x1 = 0.414 | 944.629 ± 2.1
291.75 K, x1 = 0.486 | 923.534 ± 2
291.75 K, x1 = 0.488 | 922.803 ± 2
291.75 K, x1 = 0.546 | 907.305 ± 1.9
291.75 K, x1 = 0.573 | 900.482 ± 1.9
291.75 K, x1 = 0.615 | 890.018 ± 1.9
291.76 K, x1 = 0.407 | 947.126 ± 2
291.76 K, x1 = 0.587 | 896.844 ± 1.9
291.85 K, x1 = 0.246 | 1005.7 ± 2.2
291.85 K, x1 = 0.275 | 993.671 ± 2.2
291.85 K, x1 = 0.3 | 984.268 ± 2.1
291.85 K, x1 = 0.338 | 970.173 ± 2.1
291.85 K, x1 = 0.382 | 955.119 ± 2.1
291.85 K, x1 = 0.414 | 944.718 ± 2
291.85 K, x1 = 0.486 | 923.411 ± 2
291.85 K, x1 = 0.573 | 900.371 ± 1.9
291.85 K, x1 = 0.615 | 889.909 ± 1.9
291.86 K, x1 = 0.266 | 997.179 ± 2.2
